Experiments:
L. monocytogenes = tested on: L. monocytogenes; set-up: method as in Kuenemann et al., 2018; conditions: previous research; ref Kuenemann et al., 2018; cited from earlier work
[1] = Cytotoxicity assay (resazurin); type: cell-based; conditions: human, MRC-5 cells, maximal tested concentration 64 μM
Experimental: MRC-5 cells were grown into polystyrene 96-well plates at an initial concentration of 1.5 × 10^5 cells/mL cells per well and incubated at 37°C and 5% CO2. In each well, 190 μL of cell suspension was added together with 10 μL of watery compound dilutions. Cell growth was compared to untreated control wells (100% cell growth) and medium-control wells (0% cell growth). After 3 days of incubation, cell viability was assessed using resazurin as described earlier. […] Tamoxifen was used as a positive control.

[2] = tested on: S. pneumoniae polysaccharide capsule / bacterial size; experiment: FITC-dextran exclusion assay (degree of encapsulation); type: cell-based
Experimental: The degree of encapsulation was determined by measuring the zone of exclusion of FITC-dextran (200 kDa, Sigma-Aldrich), as described previously ([Gates et al., 2004]; [Weinberger et al., 2009]; [Cools et al., 2018]). Briefly, bacteria were grown as described earlier until logarithmic phase with or without 50 μM of compound, centrifuged for 5 min at 5000 g and resuspended in PBS. To 100 μL of bacterial suspension 20 μL FITC-dextran (10 μg/mL in water) was added and 10 μL of this suspension was subsequently used to create wet mounts with cover slips. The slides were viewed on a Zeiss Observer.Z1 microscope with a 100x objective, and fluorescent images were captured with a Zeiss AxioCam MRm camera. The images were converted into grayscale and analyzed using ImageJ software. The area of FITC exclusion was determined. For each fluorescent image, a brightfield image was also recorded in order to count the number of bacteria per chain. For each strain, the mean of 150–300 cells was determined, and at least two images were collected from each of at least two independently prepared slides.

S. pneumoniae = experiment: Galleria mellonella killing assay; type: in vivo
Experimental: Larvae were purchased from a local vendor (Anaconda Reptiles, Kontich, Belgium) and stored in wood chips at 15°C before use. Four hours before use, larvae were put at 4°C. A sterile 20 μL Hamilton syringe was used to inject 10 μL aliquots of bacterial suspensions into the hindmost left proleg of Galleria mellonella. Bacteria were grown mid logarithmic phase for 6 h with or without 1, 10, 50 or 200 μM compounds, washed and resuspended in PBS before infection. The control group was injected with 10 μL PBS. A minimum of 10 larvae per group was used. Following the injections, larvae were incubated at 37°C in the dark for several days to allow progression of the pneumococcal infection. Every 24 h, larvae were scored as dead or alive. Larvae were determined dead when no signs of movement could be observed in response to external stimuli. For each strain, at least four independent repeats were carried out.

SMILES	Activity on L. monocytogenes (L. monocytogenes)	CC50 at 3 days [1] [µM]	Effect on bacterial size (area of FITC-dextran exclusion) ([2]; strain R6, 50 μM of compound)	Effect on larval survival, dose-response (S. pneumoniae; strain TIGR4 grown with 1 μM compound)	Effect on larval survival, dose-response (S. pneumoniae; strain TIGR4 grown with 10 μM compound)	Effect on larval survival, dose-response (S. pneumoniae; strain TIGR4 grown with 50 μM compound)	Effect on larval survival, dose-response (S. pneumoniae; strain TIGR4 grown with 200 μM compound)	Effect on bacterial size (area of FITC-dextran exclusion) ([2]; strain M23 galU mutant, 50 μM of compound)
NCCCOc1cccc(C(=O)NC2CCC(n3cc(F)c(=O)[nH]c3=O)C(O)C2O)c1 (centres unmarked) [BDG 33920985]	active	43.7						
NCCOc1cccc(C(=O)NC2CCCC(n3ccc(=O)[nH]c3=O)C2O)c1 (centres unmarked) [BDH 33910157]	active	> 64	no effect	inactive	inactive	significantly improved larval survival	significantly improved larval survival	
NCCCOc1cccc(C(=O)NC2CCCC(n3cnc4c(N)ncnc43)C2O)c1 (centres unmarked) [BDH 33910188]		> 64						no effect

— paper PMC7373766, “In vitro and in vivo Evaluation of in silico Predicted Pneumococcal UDPG:PP Inhibitors” (Frontiers in Microbiology, 2020)
